Experimental data taken from patent US20240173302A1, “TREATMENT OF INFLAMMATORY DISEASES” (DIMERIX BIOSCIENCE PTY LTD, priority 2021, published 2024).
“Also recorded” adds a separate entry of the source.

Assays:
ETAR and CCR2 heteromer = biological target: T1, ETAR and CCR2 heteromer (Homo sapiens, UniProt P25101+P41597); test: Receptor-HIT BRET β-arrestin recruitment assay, ETAR/Rluc8+Barr2/Venus+CCR2; type: cell-based; details: HEK293FT cells; for agonist-induced β-arrestin recruitment to ETAR (ligand-induced BRET): no antagonist; for hyperactivation of β-arrestin recruitment to ETAR (ligand-induced BRET): both CCL2/MCP-1 and ET-1 present
T1 construct: expressed in transfected cells; host or cells: HEK293FT
T1 sequence (P25101 21-427): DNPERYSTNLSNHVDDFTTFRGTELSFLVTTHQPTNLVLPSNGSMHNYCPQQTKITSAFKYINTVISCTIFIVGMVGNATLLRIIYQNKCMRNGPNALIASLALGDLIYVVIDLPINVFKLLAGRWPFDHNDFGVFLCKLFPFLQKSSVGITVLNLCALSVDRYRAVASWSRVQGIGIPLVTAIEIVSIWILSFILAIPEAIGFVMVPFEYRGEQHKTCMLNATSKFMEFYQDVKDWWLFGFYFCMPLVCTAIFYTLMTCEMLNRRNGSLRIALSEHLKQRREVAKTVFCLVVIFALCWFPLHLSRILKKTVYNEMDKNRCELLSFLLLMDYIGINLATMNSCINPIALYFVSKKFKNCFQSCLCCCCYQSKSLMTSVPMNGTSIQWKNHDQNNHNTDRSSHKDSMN
T1 sequence (P41597 whole entry): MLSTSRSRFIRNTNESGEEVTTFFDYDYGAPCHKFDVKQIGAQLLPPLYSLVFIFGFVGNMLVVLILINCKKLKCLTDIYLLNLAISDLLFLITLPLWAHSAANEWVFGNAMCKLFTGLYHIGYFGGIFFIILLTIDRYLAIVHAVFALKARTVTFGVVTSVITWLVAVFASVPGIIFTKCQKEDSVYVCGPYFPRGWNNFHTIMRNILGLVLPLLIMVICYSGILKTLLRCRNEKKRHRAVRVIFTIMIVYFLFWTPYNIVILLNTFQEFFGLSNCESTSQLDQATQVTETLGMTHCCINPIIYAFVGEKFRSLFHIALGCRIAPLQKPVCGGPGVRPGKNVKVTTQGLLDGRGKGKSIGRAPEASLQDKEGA
Experimental: HEK293FT cells were seeded in 6-well plates at a density of approximately 700,000 cells/well and maintained at 37° C., 5% CO2 in Complete Media (DMEM containing 0.3 mg/ml glutamine, 100 IU/ml penicillin and 100 μg/ml streptomycin (Thermo Fisher)) supplemented with 10% fetal calf serum (FCS; Bovogen). Transient transfections were carried out 24 h after seeding using FuGene6 (Promega) according to manufacturer instructions. 24 h post-transfection, cells were washed with PBS, detached using 0.05% trypsin/0.53 mM EDTA, resuspended in phenol red free Complete Media containing 5% FCS and added to a poly-L-lysine-coated white 96-well microplate (Greiner Bio-One). 48 h post-transfection, bioluminescence resonance energy transfer (BRET) assays were carried out following pre-incubation of cells with EnduRen™ (Promega) at a final concentration of 30 μM, at 37° ° C., 5% CO2 for 2 h. BRET measurements were taken at 37° C. using the CLARIOstar (BMG Labtech). Filtered light emissions were sequentially measured for 1 s in each of the ‘donor wavelength window’ (410-490 nm) and ‘acceptor wavelength window’ (520-620 nm).
For antagonist assays, cells were pre-incubated in EnduRen for 2 h. The antagonists (10 μM) were added and the assay was read for 30 min. Subsequently, the agonists (CXCL8 10 nM, AngII 100 nM) were added and the measurements continued for another 1 h.
The BRET signal observed between interacting proteins is normalized by subtracting the background BRET ratio. This can be done in one of two ways (see Pfleger et al. (2006) Cell Signal 18:1664-1670; Pfleger et al. (2006) Nat Protoc 1:336-344): 1) the ratio of the 520-550 nm emission over the 460-490 nm emission for a cell sample containing only the donor construct is subtracted from the same ratio for a sample containing the interacting acceptor and donor fusion proteins; 2) the ratio of the 520-550 nm emission over the 460-490 nm emission for a cell sample treated with vehicle is subtracted from the same ratio for a second aliquot of the same cell sample treated with ligand. In the following examples, the second calculation will be used and the signal is described as ‘ligand-induced BRET’.
The Receptor-Heteromer Investigation Technology (Receptor-HIT) is an assay configuration that provides insights into receptor complexes (Ayoub et al. (2015) PLOS One 10(3):e0119803). It is also known as GPCR-HIT when assessing GPCRs. It is an assay configuration whereby one receptor (eg. CCR2) is labelled with one component (eg. Renilla luciferase variant Rluc8) of a proximity-based reporter system (eg. BRET), the complementary component of which (eg. yellow fluorescent protein Venus) is fused to a receptor interacting partner (eg. β-arrestin 2). Treatment with a ligand (eg. AngII) selective for the receptor untagged with respect to the BRET assay (eg. hemagglutinin epitope-tagged AT1R; HA-AT1R) results in modulation of the proximity of the BRET-tagged receptor and the interacting partner, resulting in a change in BRET signal that is indicative of functional interaction between the two receptors.

[1] = system: CCR2 in the presence of unlabelled ETAR; test: Receptor-HIT BRET β-arrestin recruitment assay, CCR2/Rluc8+Barr2/Venus+HA-ETAR; type: cell-based, human; details: HEK293FT cells

Row | Molecule | agonist-induced β-arrestin recruitment to ETAR (ligand-induced BRET) (ETAR and CCR2 heteromer) | agonist-induced β-arrestin recruitment to ETAR (ligand-induced BRET) (ETAR and CCR2 heteromer; listed as CCL2) | agonist-induced β-arrestin recruitment to ETAR (ligand-induced BRET) (ETAR and CCR2 heteromer; listed as CCL2/MCP1) | agonist-induced β-arrestin recruitment to CCR2 (ligand-induced BRET) ([1]; no antagonist) | β-arrestin recruitment to ETAR stimulated with ET-1 (ligand-induced BRET) (ETAR and CCR2 heteromer; ET-1 alone, antagonists 10 μM) | hyperactivation of β-arrestin recruitment to ETAR (ligand-induced BRET) (ETAR and CCR2 heteromer; antagonists 10 μM) | hyperactivation of β-arrestin recruitment to ETAR (ligand-induced BRET) (ETAR and CCR2 heteromer; antagonists 10 μM, listed as sparsentan) | increased recruitment of β-arrestin to CCR2 (ligand-induced BRET) ([1]; CCL2/MCP-1 and ET-1 present, antagonists 10 μM)
1 | endothelin-1 [ET-1] | β-arrestin is recruited to ETAR; also recorded: recruit β-arrestin at a low magnitude | – | – | – | – | – | – | –
2 | monocyte chemoattractant protein-1 [CCL2/MCP-1] | β-arrestin is recruited to ETAR | β-arrestin recruitment to ETAR occurs | β-arrestin is recruited to ETAR | β-arrestin is recruited to CCR2 | – | – | – | –
3 | CCCCC1=NC2(CCCC2)C(=O)N1Cc1ccc(-c2ccccc2S(=O)(=O)Nc2noc(C)c2C)c(COCC)c1 [Sparsentan, 2-[4-[(2-butyl-4-oxo-1,3-diazaspiro[4.4]non-1-en-3-yl)methyl]-2-(ethoxymethyl)phenyl]-N-(4,5-dimethyl-1,2-oxazol-3-yl)benzenesulfonamide] | – | – | – | – | inhibits this signalling independent of CCR2 activation | abrogate the hyperactivation when both CCL2/CMP-1 and ET-1 ligands are present but not cease recruitment of β-arrestin to ETAR | abrogated | increased recruitment of β-arrestin is not observed
